From PMC7662900, “Development of a Bestatin-SAHA Hybrid with Dual Inhibitory Activity against APN and HDAC” (Molecules, 2020) come the findings set out here.

The target of one test is T1, HDAC6 (Homo sapiens, UniProt Q9UBN7).
T1 construct: purchased BPS Bioscience
T1 sequence (Q9UBN7 1-1215): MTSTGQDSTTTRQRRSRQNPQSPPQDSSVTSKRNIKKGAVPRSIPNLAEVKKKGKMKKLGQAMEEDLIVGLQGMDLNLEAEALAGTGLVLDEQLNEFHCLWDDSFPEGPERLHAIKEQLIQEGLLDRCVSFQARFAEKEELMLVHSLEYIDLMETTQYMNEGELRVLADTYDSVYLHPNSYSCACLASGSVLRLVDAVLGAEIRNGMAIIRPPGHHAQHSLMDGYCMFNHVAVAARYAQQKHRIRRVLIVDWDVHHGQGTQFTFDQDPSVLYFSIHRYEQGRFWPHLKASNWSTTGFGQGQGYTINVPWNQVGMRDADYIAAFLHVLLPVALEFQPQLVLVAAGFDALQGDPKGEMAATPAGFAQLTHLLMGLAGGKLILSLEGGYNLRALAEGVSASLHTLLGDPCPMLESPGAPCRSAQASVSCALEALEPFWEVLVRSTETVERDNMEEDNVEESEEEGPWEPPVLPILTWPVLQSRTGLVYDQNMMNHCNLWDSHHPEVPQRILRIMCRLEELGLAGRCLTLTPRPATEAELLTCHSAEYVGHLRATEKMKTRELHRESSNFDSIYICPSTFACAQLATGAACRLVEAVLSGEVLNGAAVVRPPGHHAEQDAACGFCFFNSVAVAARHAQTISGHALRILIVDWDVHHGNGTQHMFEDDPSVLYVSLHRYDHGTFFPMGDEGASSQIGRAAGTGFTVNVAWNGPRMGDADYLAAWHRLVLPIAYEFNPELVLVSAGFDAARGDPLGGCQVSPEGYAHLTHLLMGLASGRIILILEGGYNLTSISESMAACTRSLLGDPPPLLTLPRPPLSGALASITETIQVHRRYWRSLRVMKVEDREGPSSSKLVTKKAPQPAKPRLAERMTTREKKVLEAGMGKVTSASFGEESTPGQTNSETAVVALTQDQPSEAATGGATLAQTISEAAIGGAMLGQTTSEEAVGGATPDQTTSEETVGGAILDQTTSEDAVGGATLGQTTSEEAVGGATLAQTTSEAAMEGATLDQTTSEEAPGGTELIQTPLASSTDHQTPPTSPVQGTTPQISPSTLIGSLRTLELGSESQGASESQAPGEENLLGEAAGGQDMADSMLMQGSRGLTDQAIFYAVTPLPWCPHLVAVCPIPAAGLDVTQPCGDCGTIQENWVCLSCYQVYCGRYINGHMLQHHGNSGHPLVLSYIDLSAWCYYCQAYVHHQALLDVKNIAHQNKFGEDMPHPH
The test can be described thus: In vitro HDACs inhibitory assay (fluorogenic substrate), HDAC6. It counts as biochemical. The protocol: (§1) All the HDAC enzymes were brought from BPS Bioscience. Ten μL of enzyme solution (HDAC1, HDAC6 or HDAC8) was mixed with different concentrations of tested compound (50 μL). The mixture was incubated at 37 °C for 5 min, followed by adding 40 μL fluorogenic substrate (Boc-Lys(acetyl)-AMC for HDAC1 and HDAC6, Boc-Lys(triflouroacetyl)-AMC for HDAC8). After incubation at 37 °C for 30 min, the mixture was quenched by addition of 100 μL of developer containing trypsin and Trichostatin A. Over another incubation at 37 °C for 20 min, fluorescence intensity was measured using a microplate reader at excitation and emission wavelengths of 390 nm and 460 nm, respectively. The inhibition rates were calculated from the fluorescence intensity readout of tested wells relative to those of control wells, and the IC50 values were calculated using Prism non-linear curve fitting method.

A further test deals with rat thoracic aorta rings. Put plainly: Ex vivo rat thoracic aorta rings (TARs) assay. It counts as cell-based. The following applies: for anti-angiogenesis activity (microvessel outgrowth) at 5 μM: compared with bestatin at same concentration; for microvessel outgrowth from thoracic aorta ring: indicated concentrations, treated each day for 5 days. As for the experimental part: Matrigel (100 μL; BD biosciences, NJ) was added into test well of 96-well plates and then allowed to polymerize for 0.5 h at 37 °C. Sprague–Dawley rats that were 4 to 6 weeks old were sacrificed and aortas were harvested. Each aorta was cut into 1 mm slices and embedded in additional 100 μL of Matrigel in 96-well plates. After that, the rings were incubated for 30 min at 37 °C and 5% CO2. Aorta rings were treated with the vehicle (0.5% DMSO) or compounds each day for 5 days and photographed on the sixth day at ×200 magnification. All experiments involving laboratory animals were performed with the approval by the institutional guidelines of Animal Care and Use Committee at Shandong University.

In a further test the target is T2, HDAC8 (Homo sapiens, UniProt Q9BY41).
T2 construct: purchased BPS Bioscience
T2 sequence (Q9BY41 1-377): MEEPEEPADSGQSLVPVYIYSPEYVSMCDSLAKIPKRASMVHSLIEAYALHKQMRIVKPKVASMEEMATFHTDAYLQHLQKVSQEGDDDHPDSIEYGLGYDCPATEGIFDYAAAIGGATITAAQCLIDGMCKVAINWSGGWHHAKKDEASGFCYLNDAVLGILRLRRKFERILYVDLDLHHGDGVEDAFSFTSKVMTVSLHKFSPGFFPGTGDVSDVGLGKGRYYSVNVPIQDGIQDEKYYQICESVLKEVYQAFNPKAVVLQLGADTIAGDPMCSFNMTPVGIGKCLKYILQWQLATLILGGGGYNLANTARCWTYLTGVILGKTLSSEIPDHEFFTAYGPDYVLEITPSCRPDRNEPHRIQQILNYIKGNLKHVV
The test can be described thus: In vitro HDACs inhibitory assay (fluorogenic substrate), HDAC8. It counts as biochemical. As for the experimental part: as §1

A further test deals with T3, HDAC1 (Homo sapiens, UniProt Q13547).
T3 construct: purchased BPS Bioscience
Put plainly: In vitro HDACs inhibitory assay (fluorogenic substrate), HDAC1. It counts as biochemical. The protocol:
as §1

The subject of the next test is RPMI-8226 cells. The test can be described thus: Western blot analysis of protein levels in RPMI-8226 cells. It counts as cell-based, human. The following applies: for HDAC1, HDAC6 and HDAC8 protein levels (western blot) / HDAC decreasing effect under cotreatment with proteasome inhibitor bortezomib: 24 h treatment; for acetyl-histone H3 and acetyl-α-tubulin levels (intracellular target engagement) / HDAC1 and HDAC6 protein levels (western blot): 6 h treatment; for HDAC decreasing effect under cotreatment with proteasome inhibitor bortezomib: pre-incubated with 10 nM bortezomib. The protocol: The RPMI-8226 cells were plated in flat-bottom six-well plates and allowed to grow for 12 h, and then treated with compounds or DMSO for a specific time period. Then, the cells were washed twice with cold PBS and lysed in ice-cold RIPA buffer, which comprised 50 mM Tris Base, 150 mM NaCl, 5 mM EDTA, 0.1% (v/v) SDS, 0.5% (v/v) sodium deoxycholate and 1% (v/v) Triton-x-100. Lysates were cleared by centrifugation. Protein concentrations were determined using the BCA assay. Equal amounts of cell extracts were then resolved by SDS-PAGE, transferred to nitrocellulose membrane and probed with HDAC1 antibody, HDAC6 antibody, HDAC8 antibody, acetyl-histone H3 antibody, acetyl-α-tubulin antibody and β-actin antibody, respectively. The membrane was washed twice with TBST buffer before being incubated with secondary antibodies. Images were acquired using a GE ImageQuant LAS 4000.

In test [1] the target is T4, microsomal APN from porcine kidney microsomes (Sus scrofa, UniProt P15145).
T4 construct: microsomal APN from porcine kidney microsomes (Biocol); purchased Biocol; host or cells: porcine kidney microsomes (tissue-derived)
T4 sequence (P15145 1-963): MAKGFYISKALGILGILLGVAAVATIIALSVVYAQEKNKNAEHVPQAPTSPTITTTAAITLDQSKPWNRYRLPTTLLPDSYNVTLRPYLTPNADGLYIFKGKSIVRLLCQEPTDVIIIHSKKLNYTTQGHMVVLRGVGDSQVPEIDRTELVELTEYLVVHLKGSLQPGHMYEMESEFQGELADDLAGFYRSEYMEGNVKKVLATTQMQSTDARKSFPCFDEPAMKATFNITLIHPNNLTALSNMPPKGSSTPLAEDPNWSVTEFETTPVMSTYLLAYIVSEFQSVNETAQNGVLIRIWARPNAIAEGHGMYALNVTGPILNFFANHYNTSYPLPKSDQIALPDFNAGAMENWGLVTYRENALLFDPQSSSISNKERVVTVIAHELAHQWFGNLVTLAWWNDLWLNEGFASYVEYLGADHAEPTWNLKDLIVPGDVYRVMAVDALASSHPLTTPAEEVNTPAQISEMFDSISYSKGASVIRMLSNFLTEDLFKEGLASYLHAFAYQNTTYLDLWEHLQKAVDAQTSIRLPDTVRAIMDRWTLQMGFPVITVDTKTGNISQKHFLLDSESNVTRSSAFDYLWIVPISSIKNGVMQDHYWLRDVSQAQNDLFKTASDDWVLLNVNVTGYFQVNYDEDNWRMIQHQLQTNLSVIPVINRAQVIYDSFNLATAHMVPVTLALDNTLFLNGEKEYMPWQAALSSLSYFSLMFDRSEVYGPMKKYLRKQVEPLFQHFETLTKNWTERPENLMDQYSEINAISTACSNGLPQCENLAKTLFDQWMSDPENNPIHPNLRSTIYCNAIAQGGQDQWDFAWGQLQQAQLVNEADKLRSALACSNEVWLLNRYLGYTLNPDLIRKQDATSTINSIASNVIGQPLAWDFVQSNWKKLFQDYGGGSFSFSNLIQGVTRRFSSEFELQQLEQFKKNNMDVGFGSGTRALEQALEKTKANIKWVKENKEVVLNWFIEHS
The test can be described thus: In vitro APN inhibitory assay (l-leu-p-nitroanilide substrate). The following applies: mean ± SD, n ≥ 3. It counts as biochemical. The protocol:
The inhibitory activities of target compounds against APN were determined using l-leu-p-nitroanilide as substrate and microsomal APN from porcine kidney microsomes (Biocol) in 50 mM PBS, pH 7.2 as enzyme. Briefly, inhibitors (40 μL), PBS (145 μL), substrate (5 μL) and APN solution (10 μL) were added into 96-well plates. The mixture was incubated at 37 °C for 30 min. […] The inhibition rates were calculated based on the ultraviolet absorption readout of tested wells relative to those of control wells, and the IC50 values were calculated using Prism non-linear curve fitting method.

The mark [2] stands for this setting: read-out: Inhibitory Rates at 10 μM, HDAC6.
Setting [3] is: read-out: Inhibitory Rates at 10 μM, HDAC8.
Setting [4] is: read-out: Inhibitory Rates at 10 μM, HDAC1.

“Also recorded” adds a separate entry of the source. Read-outs that look alike come from different tables or passages of the source. Where only a bound is given, the exact number is not on record here.

T3 sequence (Q13547 whole entry): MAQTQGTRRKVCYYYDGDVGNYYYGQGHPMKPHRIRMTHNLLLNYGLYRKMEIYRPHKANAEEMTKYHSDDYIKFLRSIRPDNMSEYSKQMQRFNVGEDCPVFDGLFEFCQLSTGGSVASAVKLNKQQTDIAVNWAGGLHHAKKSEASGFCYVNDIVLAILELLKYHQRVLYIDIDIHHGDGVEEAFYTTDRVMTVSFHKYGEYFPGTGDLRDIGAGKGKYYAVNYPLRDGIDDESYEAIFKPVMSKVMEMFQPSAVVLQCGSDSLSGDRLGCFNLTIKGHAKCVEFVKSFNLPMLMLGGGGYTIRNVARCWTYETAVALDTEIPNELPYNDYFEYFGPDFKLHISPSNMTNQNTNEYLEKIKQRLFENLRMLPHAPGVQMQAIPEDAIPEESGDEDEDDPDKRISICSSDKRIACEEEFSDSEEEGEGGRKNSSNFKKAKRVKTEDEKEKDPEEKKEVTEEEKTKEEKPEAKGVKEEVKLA

In the case of `CC(C)C[C@H](NC(=O)[C@@H](O)[C@H](N)Cc1ccccc1)C(=O)NCCCCCC(=O)Nc1ccc(NC(=O)CCCCCCC(=O)NO)cc1.O=C(O)C(F)(F)F` [P1, N^1-(4-(6-((S)-2-((2S,3R)-3-Amino-2-hydroxy-4-phenylbutanamido)-4-methylpentanamido)hexanamido)phenyl)-N^8-hydroxyoctanediamide trifluoroacetate], the IC50 turned out to be 11.5 nM against HDAC6 (mean ± SD, n ≥ 3); 694 nM against HDAC8 (mean ± SD, n ≥ 3); 30 nM against HDAC1 (mean ± SD, n ≥ 3); 3430 ± 140 nM in test [1]. In addition, the inhibition at 10 µM was over 90% on HDAC6 (read-out: Inhibitory Rates at 10 μM, HDAC6, 10 μM); over 90% on HDAC8 (read-out: Inhibitory Rates at 10 μM, HDAC8, 10 μM); over 90% at HDAC1 (read-out: Inhibitory Rates at 10 μM, HDAC1, 10 μM). In addition, the “anti-angiogenesis activity (microvessel outgrowth) at 5 μM” value (“anti-angiogenesis activity” below) with rat thoracic aorta rings was “superior anti-angiogenesis activities relative to bestatin”. In addition, the “microvessel outgrowth from thoracic aorta ring” value with rat thoracic aorta rings is listed as “effectively inhibited the microvessel outgrowth in a dose-dependent manner”. Also, in the test on RPMI-8226 cells (1 μM to 4 μM), the “HDAC1, HDAC6 and HDAC8 protein levels (western blot)” value is “significantly decrease the levels of HDAC1, HDAC6 and even HDAC8 in a dose-dependent manner”. In addition, the “acetyl-histone H3 and acetyl-α-tubulin levels (intracellular target engagement)” value with RPMI-8226 cells was “increased levels of acetyl-histone H3 (the HDAC1 substrate) and acetyl-α-tubulin (the HDAC6 substrate)”. In the test with RPMI-8226 cells, the “HDAC decreasing effect under cotreatment with proteasome inhibitor bortezomib” value was “could not reverse”. Also, the “HDAC1 and HDAC6 protein levels (western blot)” value with RPMI-8226 cells (up to 20 μM) is “did not lead to HDAC1 or HDAC6 depletion”.

Turning to `CC(C)C[C@H](NC(=O)[C@@H](O)[C@H](N)Cc1ccccc1)C(=O)NCCOCCOCCNC(=O)c1cccc(C(=O)NO)c1.O=C(O)C(F)(F)F` [P2, N^1-((11S,14S,15R)-15-Amino-14-hydroxy-11-isobutyl-10,13-dioxo-16-phenyl-3,6-dioxa-9,12-diazahexadecyl)-N^3-hydroxyisophthalamide trifluoroacetate], the inhibition at 10 µM on HDAC6 (setting [2]) amounted to 76%; at HDAC8 (setting [3]), 64%; at HDAC1 (setting [4]), 66%. For the same compound, the “anti-angiogenesis activity” value with rat thoracic aorta rings is recorded as “superior anti-angiogenesis activities relative to bestatin; also recorded: almost completely inhibit the microvessel outgrowth”. For the same compound, the “microvessel outgrowth from thoracic aorta ring” value with rat thoracic aorta rings is listed as “effectively inhibited the microvessel outgrowth in a dose-dependent manner”. For the same compound, the IC50 in test [1] came to 1670 ± 30 nM.

`CC(C)C[C@H](NC(=O)[C@@H](O)[C@H](N)Cc1ccccc1)C(=O)NCCOCCOCC(=O)Nc1cccc(C(=O)NO)c1` [P3, 3-((11S,14S,15R)-15-Amino-14-hydroxy-11-isobutyl-10,13-dioxo-16-phenyl-3,6-dioxa-9,12-diazahexadecanamido)-N-hydroxybenzamide]: the inhibition at 10 µM was 71% at HDAC6 (setting [2]), 51% on HDAC8 (setting [3]) and 67% on HDAC1 (setting [4]). Further, the “anti-angiogenesis activity” value with rat thoracic aorta rings was “superior anti-angiogenesis activities relative to bestatin”. Besides, the “microvessel outgrowth from thoracic aorta ring” value with rat thoracic aorta rings is reported as “effectively inhibited the microvessel outgrowth in a dose-dependent manner”. Further, in test [1], the IC50 was found to be 2650 ± 160 nM.

In the case of `O=C(CCCCCCC(=O)Nc1ccccc1)NO` [SAHA], the “HDAC1, HDAC6 and HDAC8 protein levels (western blot)” value in the test on RPMI-8226 cells (5 μM) was “effectively lead to the downregulation of HDAC1, HDAC6 and HDAC8”. Also, in the test on RPMI-8226 cells, the “acetyl-histone H3 and acetyl-α-tubulin levels (intracellular target engagement)” value is “potently inhibited the intracellular HDAC”; the “HDAC decreasing effect under cotreatment with proteasome inhibitor bortezomib” value was “could not reverse”. In the test on RPMI-8226 cells (indicated concentrations), the “HDAC1 and HDAC6 protein levels (western blot)” value is “without influencing the levels of HDAC1 and HDAC6”.
